Results published in patent US7285567B2, “Halogenated benzamide derivatives” (Romark Laboratories, L.C., priority 2005, dated 2007).
Where two headings read alike, the source gives them in different places.

Assays:
[1] = system: hepatitis C virus (HCV) replicon; assay: HCV replication in AVA5 replicon cell culture, 3-day assay; assay type: cell-based; details: AVA5 cells
Method: Anti-Hepatitis C Virus (HCV) analyses and an assessment of cytotoxicity were performed in a 3-day assay in the HCV replicon-containing human hepatoblastoma cell line, AVA5 (Okuse, C., Rinaudo, J. A., Farrar, K., Wells, F. & Korba, B. E. Enhancement of antiviral activity against hepatitis C virus in vitro by interferon combination therapy. Antivir. Res. 65, 23-34 (2005)) as previously described (Blight, K. J., Kolykhalov, A. A. & Rice, C. M. Efficient initiation of HCV RNA replication in cell culture. Science 290, 1972-1974 (2000)).
Values presented (±standard deviations [S.D.]) were calculated by linear regression analysis using data combined from all treated cultures. S.D. were calculated using the standard error of regression generated from the linear regression analyses (QuattroPro™). EC50, EC90=drug concentration at which a 2-fold, or a 10-fold depression of HCV RNA (relative to the average levels in untreated cultures), respectively, was observed. CC50=drug concentration at which a 2-fold depression of neutral red dye uptake was observed relative to the average levels in untreated cultures. Selectivity index=CC50/EC50.

[2] = system: anaerobic bacteria (all 142 isolates); assay: CLSI agar dilution MIC, all anaerobic clinical isolates; assay type: cell-based
[3] = Cytotoxicity in 2.2.15 cells (neutral red dye uptake); assay type: cell-based; details: human, 2-fold depression of neutral red dye uptake
Method: Anti-Hepatitis B Virus (HBV) analyses and an assessment of cytotoxicity were performed in a 9-day assay in the chronically-producing HBV human hepatoblastoma cell line, 2.2.15, as previously described (Korba, B. E. & Gerin, J. L. Use of a standardized cell culture assay to assess activities of nucleosides analogues against hepatitis B virus replication. Antivir. Res. 19, 55-70 (1992)).
Values presented (±standard deviations [S.D.]) were calculated by linear regression analysis using data combined from all treated cultures. S.D. were calculated using the standard error of regression generated from linear regression analyses (QuattroPro™). EC50, EC90=drug concentration at which a 2-fold, or a 10-fold depression of HBV DNA (relative to the average levels in untreated cultures), respectively, was observed, CC50=drug concentration at which a 2-fold depression of neutral red dye uptake (relative to the average levels in untreated cultures) was observed, The EC90 values were used for the calculation of the Selectivity Indexes [S.I.] since at least a 3-fold depression of HBV levels is typically required to achieve statistical significance in this assay system. HBV R.I.=intracellular HBV DNA replication intermediate.

[4] = system: Human Rhinovirus Type 39 (HRV-39); assay: Multiple cycle CPE inhibition assay on OH-I Hela cell monolayers; assay type: cell-based; details: Rhinovirus A, HRV39, HRV-39, OH-Hela, 2% McCoys + Hepes Buffer
Method: EC50 (μg/mL) values for 2-(acetolyloxy)-3-methyl-N-(5-bromo-2-thiazolyl)benzamide (RM4803), 2-(acetolyloxy)-3-methyl-N-(5-chloro-2-thiazolyl)benzamide (RM4804), and 2-(acetolyloxy)-3-methoxy-N-(5-bromo-2-thiazolyl)benzamide (RM4806), on Human Rhinovirus Type 39 (HRV-39), and H3N2 influenza virus, type A, using a multiple cycle CPE inhibition assay on OH-I Hela and Madin Darby Canine Kidney (MDCK) cell monolayers, respectively, were measured by microscopic and spectrophotometric methods. Pirodavir and Oseltamivir were included as positive controls.

[5] = system: clostridia; assay: organism not typed; assay type: cell-based; details: Clostridia (18 isolates), agar dilution, 48 h
[6] = system: anaerobic Gram-positive non-sporeforming rods; assay: CLSI agar dilution MIC, anaerobic clinical isolates; assay type: cell-based; details: Gram + rods (14 isolates), 48 h
[7] = system: Coronavirus: canine coronavirus strain S-378; assay: microbe, parasite or virus in culture; assay type: cell-based; details: canine coronavirus strain S-378, A72 cell culture
[8] = system: Paramyxovirus: Sendai virus; assay: microbe, parasite or virus in culture; assay type: cell-based; details: Sendai virus, 37RC cell culture (Table 1)
[9] = system: Influenza A: PR8 strain; assay: microbe, parasite or virus in culture; assay type: cell-based, Influenza A virus
[10] = system: anaerobic Gram positive cocci; assay: CLSI agar dilution MIC, anaerobic clinical isolates; assay type: cell-based; details: Gram + cocci (16 isolates), 48 h
[11] = system: Giardia intestinalis; assay: Antiparasite test by conventional means; assay type: cell-based; details: at concentrations of at least 50 μg/mL
Method: (§1) The above identified compounds according to Formula (IV) were tested by conventional means against Trichomis vaginalis, Giardia Intestinalis, and Trypanosoma brucei.

[12] = system: Trypanosoma brucei; assay: Antiparasite test by conventional means; assay type: cell-based; details: at concentrations of at least 50 μg/mL
Method: as §1

[13] = system: Trichomonas vaginalis; assay: Antiparasite test by conventional means; assay type: cell-based; details: at concentrations of at least 50 μg/mL
Method: as §1

[14] = system: fusobacteria; assay: CLSI agar dilution MIC, anaerobic clinical isolates; assay type: cell-based; details: Fusobacteria (28 isolates), 48 h
Method: (§2) Methods. Recent clinical anaerobic isolates (2000 to date) comprised 40 B. fragilis group, 26 Prevotella/Porphyromonas, 28 fusobacteria, 16 anaerobic Gram positive cocci, 14 anaerobic Gram-positive non-sporeforming rods and 18 clostridia. CLSI agar dilution MIC methodology with enriched Brucella blood agar and inocula of 1×10^5 cfu/spot was used. Plates were incubated in an anaerobic glove box at 35° C. for 48 h. Results.

[15] = system: B. fragilis group; assay: as above; assay type: cell-based; details: Bacteroides fragilis, B. fragilis gp (40 isolates), 48 h, 35° C.
Method: as §2

[16] = system: Prevotella/Porphyromonas; assay: as above; assay type: cell-based; details: Prev/Porphy (26 isolates), 48 h
Method: as §2

[17] = system: Rhabdovirus: Vesicular stomatitis virus; assay: microbe, parasite or virus in culture; assay type: cell-based
[18] = system: Rotavirus: Simian Rotavirus SA-11; assay: microbe, parasite or virus in culture; assay type: cell-based; details: Simian rotavirus SA-11, MA104 cell culture
[19] = All (142 isolates), agar dilution, 48 h

CC(=O)Oc1c(C)cccc1C(=O)Nc1ncc(Br)s1 [RM-4803, 2-(acetolyloxy)-3-methyl-N-(5-bromo-2-thiazolyl)benzamide]
Selectivity Index ([1]; CC50/EC50): 7.6
EC50 ([1]; Hepatitis C virus, 2-fold depression of HCV RNA, read-out: EC50): 37 ± 2.7 µM
EC90 ([1]; Hepatitis C virus, 10-fold depression of HCV RNA, read-out: EC90): 98 ± 9.3 µM
MIC50 [2, 19]: > 32 µg/mL
MIC90 [2, 19]: > 32 µg/mL
Activity against anaerobic bacteria groups (summary in words) ([2]; summary of MIC results): without significant activity
CC50 at 9 day [3]: > 1000 µM
EC50 ([4]; microscopic reading, read-out: EC50, Microscopic): 0.06 µg/mL
EC50 ([4]; spectrophotometric reading, read-out: EC50, Spectrophotometer): 0.03 µg/mL
MIC50 ([5]; read-out: MIC50): > 32 µg/mL
MIC90 ([5]; read-out: MIC90): > 32 µg/mL
MIC50 [6]: > 32 µg/mL
MIC90 [6]: > 32 µg/mL
EC50 ([7]; Alphacoronavirus 1, A-72): 4.2 µM
SI (selectivity index) = CC50/EC50 ([7]; CC50 by MTT): 13
EC50 ([8]; Respirovirus muris): 1.1 µM
SI (selectivity index) = CC50/EC50 ([8]; CC50 by MTT): > 125
SI (selectivity index) = CC50/EC50 ([9]; Influenza A PR8 strain, MDCK cell culture, CC50 by MTT): > 50
EC50 ([9]; Influenza A virus, PR8, MDCK): 2.8 µM
MIC50 [10]: > 32 µg/mL
MIC90 [10]: > 32 µg/mL
antiparasite activity [11]: failed to exhibit antiparasite activitity
antiparasite activity [12]: failed to exhibit antiparasite activitity
antiparasite activity [13]: failed to exhibit antiparasite activitity
MIC50 [14]: > 32 µg/mL
MIC90 [14]: > 32 µg/mL
MIC50 [15]: > 32 µg/mL
MIC90 [15]: > 32 µg/mL
MIC50 [16]: > 32 µg/mL
MIC90 [16]: > 32 µg/mL
EC50 ([17]; MA104): 2.8 µM
SI (selectivity index) = CC50/EC50 ([17]; MA104 cell culture, CC50 by MTT): > 50
EC50 ([18]; Rotavirus A): 0.06 µM
SI (selectivity index) = CC50/EC50 ([18]; CC50 by MTT): > 2500
